The text below walks through data of ChEMBL document CHEMBL1201862, “PubChem BioAssay data set” (2004).

Among the test systems are EKVX; SK-MEL-2; HT-29; IGROV-1; SF-539; COLO 205; NCI/ADR-RES; OVCAR-4; HCT-15; U-251; MDA-MB-435; SN12C; T47D; M14; OVCAR-5; NCI-H226; HCC 2998; SR.
Test in all cases: growth of human tumour cells (NCI), 48 h

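These data come from cells grown in 96-well plates and exposed to compound for 48 hours at five concentrations. The concentration for 50% growth inhibition is given as GI50.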 The source made the active and inactive calls. Cut-off read from the data, not from the text of the source: active = GI50 up to about 1.1 µM and inactive = higher.

Turning to `COc1ccc2nc(NCN3C(=O)c4ccccc4C3=O)sc2c1`, the GI50 with EKVX, in the experiment on SK-MEL-2, in the experiment with HT-29, with IGROV-1, with SF-539 and with COLO 205 was > 100 µM (inactive) throughout. The GI50 with NCI/ADR-RES is > 100 µM (inactive); in the experiment on OVCAR-4, > 100 µM (inactive); in the experiment with HCT-15 it was above 100 µM; in the experiment with U-251, > 100 µM (inactive); with MDA-MB-435, > 100 µM (inactive); in the experiment with SN12C it was > 100 µM (inactive). For the same molecule, the GI50 with T47D, in the experiment on M14 and in the experiment with OVCAR-5 was > 100 µM (inactive) in each case.

As for `CCOC(=O)c1ccc(-c2cc(C)no2)[nH]1`, the GI50 with EKVX was 41.7 µM (inactive); with SK-MEL-2, > 100 µM (inactive); in the experiment on HT-29 it was > 100 µM (inactive); with IGROV-1, > 100 µM (inactive); in the experiment with SF-539 it was > 100 µM (inactive); with COLO 205 it was 40 µM (inactive). Moreover, the GI50 was 46.7 µM (inactive) with NCI/ADR-RES; 74.6 µM (inactive) in the experiment on OVCAR-4; 30.2 µM with HCT-15; 98.4 µM (inactive) in the experiment on U-251; 11.4 µM (inactive) in the experiment with MDA-MB-435; > 100 µM (inactive) in the experiment with NCI-H226. For the same molecule, the GI50 with SN12C is 33 µM (inactive); in the experiment with T47D, 68.5 µM (inactive); with M14, > 100 µM (inactive); in the experiment with OVCAR-5, > 100 µM (inactive).

Regarding `O=C1NC(=O)c2ccc([N+](=O)[O-])c3cccc1c23`, the GI50 is 28.3 µM (inactive) in the experiment on EKVX; 32.3 µM (inactive) in the experiment with SK-MEL-2; 16 µM (inactive) in the experiment on HT-29; 15.9 µM (inactive) with IGROV-1; 17.9 µM (inactive) with SF-539; 14.9 µM (inactive) in the experiment with COLO 205. Besides, the GI50 is 20 µM (inactive) with OVCAR-4; 5.31 µM with HCT-15; 15.4 µM (inactive) with U-251; 16.4 µM (inactive) in the experiment with MDA-MB-435; 24.7 µM (inactive) in the experiment on HCC 2998; 14.3 µM (inactive) in the experiment with NCI-H226. Also, the GI50 in the experiment with SN12C is 17.4 µM (inactive); in the experiment with T47D it was 18.6 µM (inactive); in the experiment with M14 it was 14.8 µM (inactive); in the experiment with OVCAR-5 it was 18.3 µM (inactive).

With `CC1=C(C(=O)Nc2cccc3c2C(=O)NC3=O)CC(C(=O)Nc2cccc3c2C(=O)NC3=O)=C(C)N1`, the GI50 in the experiment with EKVX was > 100 µM (inactive); in the experiment on SK-MEL-2, > 100 µM (inactive); in the experiment on IGROV-1, > 100 µM (inactive); in the experiment with SF-539, > 100 µM (inactive); in the experiment on COLO 205 it was 40.7 µM (inactive); in the experiment on OVCAR-4, > 100 µM (inactive). The GI50 is above 100 µM with HCT-15; > 100 µM (inactive) in the experiment with U-251; > 100 µM (inactive) in the experiment on MDA-MB-435; 95.5 µM (inactive) in the experiment with HCC 2998; > 100 µM (inactive) in the experiment on SN12C; > 100 µM (inactive) with T47D. For the same molecule, the GI50 in the experiment with M14, in the experiment with OVCAR-5 and in the experiment with SR was > 100 µM (inactive) in each case.

On to `Cn1c(C(C#N)c2cc(Cl)ncn2)nc2ccccc21` (stereo not given), for which the GI50 in the experiment with EKVX, in the experiment with HT-29, with IGROV-1, in the experiment with SF-539, in the experiment on COLO 205 and with NCI/ADR-RES was > 100 µM (inactive) each time. For the same molecule, the GI50 in the experiment with OVCAR-4 is > 100 µM (inactive); in the experiment on HCT-15, above 100 µM; in the experiment on U-251, > 100 µM (inactive); in the experiment with MDA-MB-435 it was > 100 µM (inactive); with NCI-H226, > 100 µM (inactive); in the experiment on SN12C, > 100 µM (inactive). For the same molecule, the GI50 in the experiment on T47D, with M14 and with OVCAR-5 was > 100 µM (inactive) in each case.

As for `CCOP(=O)(OCC)[C@H]1OC(C)(C)O[C@@H]1CO`, the GI50 in the experiment with EKVX, in the experiment on SK-MEL-2, with HT-29, with IGROV-1, in the experiment with SF-539 and in the experiment on COLO 205 was > 100 µM (inactive) in each case. Besides, the GI50 in the experiment on NCI/ADR-RES was > 100 µM (inactive); in the experiment on OVCAR-4, > 100 µM (inactive); with HCT-15, above 100 µM; in the experiment with U-251, > 100 µM (inactive); in the experiment with MDA-MB-435 it was > 100 µM (inactive); with HCC 2998, > 100 µM (inactive). Further, the GI50 with SN12C, in the experiment on T47D, with M14 and with OVCAR-5 was > 100 µM (inactive) each time.

`COc1ccc(C2CC3(c4ccccc4)ON=C(c4ccccc4)N3c3ccccc3S2)cc1` (stereo not given): the GI50 with EKVX, in the experiment with HT-29, with IGROV-1, in the experiment on SF-539, in the experiment with COLO 205 and in the experiment with NCI/ADR-RES was > 100 µM (inactive) in each case. Also, the GI50 in the experiment with OVCAR-4 is > 100 µM (inactive); with HCT-15, above 100 µM; with U-251 it was > 100 µM (inactive); in the experiment with MDA-MB-435, > 100 µM (inactive); with HCC 2998 it was > 100 µM (inactive); in the experiment on NCI-H226, > 100 µM (inactive). For the same molecule, the GI50 with SN12C, in the experiment with T47D, with M14 and in the experiment on OVCAR-5 was > 100 µM (inactive) in each case.

Turning to `CC(C)C1=CC23CCC4C(C)(C(=O)O)CCCC4(C)C2CC1C1C(=O)N(c2ccc(C(=O)O)cc2)C(=O)C13` (stereo not given), the GI50 with EKVX, with SK-MEL-2, in the experiment on HT-29, in the experiment with IGROV-1, in the experiment on SF-539 and in the experiment with COLO 205 was > 100 µM (inactive) each time. The GI50 with NCI/ADR-RES is > 100 µM (inactive); with OVCAR-4 it was > 100 µM (inactive); with HCT-15, above 100 µM; in the experiment with U-251, > 100 µM (inactive); with MDA-MB-435, > 100 µM (inactive); in the experiment on HCC 2998, > 100 µM (inactive). For the same molecule, the GI50 with NCI-H226, with SN12C, in the experiment with T47D and in the experiment with M14 was > 100 µM (inactive) throughout.

`CC1(C)[C@@H](Cn2cnc3c(Cl)nc(N)nc32)CC[C@@]1(C)CO`: the GI50 is 58.9 µM (inactive) in the experiment with EKVX; 18.5 µM (inactive) in the experiment with SK-MEL-2; > 100 µM (inactive) in the experiment with SF-539; 51.5 µM (inactive) with COLO 205; 83.4 µM (inactive) in the experiment with NCI/ADR-RES; > 100 µM (inactive) in the experiment with OVCAR-4. Besides, the GI50 with HCT-15 is 35.9 µM; in the experiment with U-251, > 100 µM (inactive); with MDA-MB-435, 26.4 µM (inactive); in the experiment with HCC 2998, 22.5 µM (inactive); in the experiment with NCI-H226, 12.7 µM (inactive); with SN12C, 57.3 µM (inactive). Also, the GI50 was > 100 µM (inactive) with T47D, 40.3 µM (inactive) with M14 and > 100 µM (inactive) with OVCAR-5.
